Laboratory results as given in patent US20250352554A1 (Neurelis, Inc., priority 2024, published 2025).
Read-outs that look alike come from different tables or passages of the source.

Conditions: saturated solution

Measured: Appearance

Cc1cc2c(s1)Nc1ccccc1N=C2N1CCN(C)CC1 [olanzapine, 2-methyl-4-(4-methyl-1-piperazinyl)-10H-thieno[2,3-b][1,5]benzodiazepine]
Clear amber solution: 20% Dimethylacetamide/80% PEG 200 | 40% Dimethylacetamide/60% PEG 200 | 100% PEG 200
